Several values for one entry are separate records, joined by “and”; a condition that tells them apart may be missing. Equal entries are not always repeated.
Legend:
[1] = test system: porcine lumbar spine (L3/4 IVD); assay: Flexural rigidity of the isolated porcine lumbar spine after intradiscal LA (series 1); type: in vivo, pig; details: 28 days
Protocol: The pigs were pre-medicated by intramuscular injection of dexmedetomidin (Domitor®vet, Orion Pharma, Sollentuna, Sweden) and a commercial mixture of zolazepam and tiletamine (Zoletil®vet 100, Virbac, Carros, France) in conventional doses. Anesthesia was maintained by buprenophine ([…], Orion Pharma) 0.03 mg/kg intramuscularly, carpofen (Rimadyl®vet, Orion Pharma) 4 mg/kg intravenously and isoflurane ([…] Pharma AB, Stockholm, Sweden) using a Servo 900 respirator (Siemens, Munich, Germany). Before recovering from anesthesia, atipamezol (Antisedan®vet, Orion Pharma) was given intramuscularly. On the first three days after surgery the pigs received oral carprofen 2 mg/kg twice daily. The pigs were placed on the right side. […] The concentration was determined based on the pilot experiments on the effects of LA on collagen secretion from human NP cells (as described in WO 2017/046030). […] The height and width of normally appearing NP (FIG. 6a) in the anteroposterior (short vertical double arrow) and bilateral (short horizontal double arrow) directions, respectively, were measured and expressed in relation to the height (long vertical double arrow), and width (long horizontal double arrow) of the IVD. […] The distances between the lateral processes of the vertebrae cranially and caudally to the injected IVD was measured with a caliper at full ipsi- or contralateral flexion. […]

[2] = test system: NP and disc height of patients' IVDs; assay: Clinical study, T2-weighted MRI of NP intensity and disc height; type: in vivo, human; design: key to Individual scoring of change in NP intensity, Assessor No. 1 / Individual scoring of change in NP intensity, Assessor No. 2 / Individual scoring of change in NP intensity, Assessor No. 3 / Individual scoring of change in NP intensity, Assessor No. 4: 1, clear reduction; 0, no change; details: for NP intensity change score at T2-weighted MR imaging, Mean ± SD: score 1 clear reduction, 0 no change, 4 assessors
Protocol: The study was a randomized, double-blinded, placebo-controlled, single ascending dose study with the primary objective to evaluate safety and tolerability following intradiscal injection of LA in Omnipaque or placebo (Omnipaque) in 15 patients with chronic discogenic low back pain. The secondary objective was to assess effects on the NP and disc height using T2-weighted MRI.
All MRI investigations were performed using the same scanner (Siemens 1.5 T Avanto) with the following exceptions: Baseline MRI for one placebo-treated patient and 2 patients given the high dose was acquired in a Siemens Symphony 1.5 T scanner while all other scans were done in the Siemens 1.5 T Avanto scanner. Also, baseline and 3 month MRI were done in the Symphony scanner while the other scans were done in the Avanto scanner in 2 placebo-treated patients and one patient treated with the high dose. T1- and T2-weighted sagittal, coronal, and transversal sections were acquired at 4 mm before and after injection of gadolinium contrast.
Disc height measured as the maximal distance between 2 adjacent endplates and Pfirrmann grade were documented at screening and they were followed throughout the study. Since the Pfirrmann criteria are not sensitive enough to detect minor changes in disc hydration, changes in intensity of the NP at T2-weighted MRI were scored by 4 assessors blind to the group assignment of the patients. The assessors were instructed to score no change as “0” and obvious reduction in intensity as “1”, regardless of time after treatment.
Changes in intensity of the NP at T2-weighted MR imaging were scored as 1, clear reduction and 0, no change. The scoring was done by 4 assessors blind to the group assignment of the patients. Reductions in disc height were observed throughout the study (Table 8).

[3] = LA concentration 30, individual patients and IVDs
[4] = LA concentration 60, individual patients and IVDs
[5] = LA concentration 120, individual patients and IVDs

CC(O)C(=O)O (stereo not drawn) [LA, lactic acid]
Flexural rigidity (mm, mean ± SD) ([1]; pig L3/4 IVD, 0.2 mL LA 120 mg/mL intradiscal, n=6, difference of process distances at full flexion (lower = stiffer)): 2.7 ± 1.1 mm | Flexural rigidity, LA- vs placebo-injected and naive IVDs ([1]; pig, LA 120 mg/mL): marked difference in flexural rigidity | NP intensity change score, Median ([2]; LA 30 mg/mL): 0 | Disc height change from baseline (mm) Mean ± SD ([2]; LA 30 mg/mL, 3 months): 0.3 ± 1.3 mm | Disc height change from baseline (mm) Mean ± SD ([2]; LA 30 mg/mL, 6 months): −0.5 ± 0.7 mm | Disc height change from baseline (mm) Mean ± SD ([2]; LA 30 mg/mL, 12 months): −0.5 ± 0.7 mm | NP intensity change score at T2-weighted MR imaging, Mean ± SD ([2]; LA 30 mg/mL): 0.4 ± 0.5 | NP intensity change score, Median ([2]; LA 60 mg/mL): 1 | Disc height change from baseline (mm) Mean ± SD ([2]; LA 60 mg/mL, 3 months): −1.0 ± 0.7 mm | Disc height change from baseline (mm) Mean ± SD ([2]; LA 60 mg/mL, 6 months): −0.8 ± 0.8 mm | Disc height change from baseline (mm) Mean ± SD ([2]; LA 60 mg/mL, 12 months): −1.2 ± 0.8 mm | NP intensity change score at T2-weighted MR imaging, Mean ± SD ([2]; LA 60 mg/mL): 1.0 ± 0.0 | NP intensity change score, Median ([2]; LA 120 mg/mL): 1 | Disc height change from baseline (mm) Mean ± SD ([2]; LA 120 mg/mL, 3 months): −1.2 ± 1.1 mm | Disc height change from baseline (mm) Mean ± SD ([2]; LA 120 mg/mL, 6 months): −1.4 ± 1.1 mm | Disc height change from baseline (mm) Mean ± SD ([2]; LA 120 mg/mL, 12 months): −1.8 ± 1.3 mm | NP intensity change score at T2-weighted MR imaging, Mean ± SD ([2]; LA 120 mg/mL): 0.9 ± 0.3 | Individual scoring of change in NP intensity, Assessor No. 1 [2, 3]: 0 (2×) and 1 (2×) | Individual scoring of change in NP intensity, Assessor No. 2 [2, 3]: 0 (3×) and 1 | Individual scoring of change in NP intensity, Assessor No. 3 [2, 3]: 0 (2×) and 1 (2×) | Individual scoring of change in NP intensity, Assessor No. 4 [2, 3]: 0 (2×) and 1 (2×) | Individual scoring of change in NP intensity, Assessor No. 1 [2, 4]: 1 | Individual scoring of change in NP intensity, Assessor No. 2 [2, 4]: 1 | Individual scoring of change in NP intensity, Assessor No. 3 [2, 4]: 1 | Individual scoring of change in NP intensity, Assessor No. 4 [2, 4]: 1 | Individual scoring of change in NP intensity, Assessor No. 1 [2, 5]: 1 | Individual scoring of change in NP intensity, Assessor No. 2 [2, 5]: 1 (3×) and 0 (2×) | Individual scoring of change in NP intensity, Assessor No. 3 [2, 5]: 1 | Individual scoring of change in NP intensity, Assessor No. 4 [2, 5]: 1 | % decrease in disc height ([2]; lactic acid 30 mg/mL, 3 months): +3% | % decrease in disc height ([2]; lactic acid 30 mg/mL, 6 months): 5% | % decrease in disc height ([2]; lactic acid 30 mg/mL, 12 months): 5% | % decrease in disc height ([2]; lactic acid 60 mg/mL, 3 months): 11% | % decrease in disc height ([2]; lactic acid 60 mg/mL, 6 months): 8% | % decrease in disc height ([2]; lactic acid 60 mg/mL, 12 months): 13% | % decrease in disc height ([2]; lactic acid 120 mg/mL, 3 months): 11% | % decrease in disc height ([2]; lactic acid 120 mg/mL, 6 months): 12% | % decrease in disc height ([2]; lactic acid 120 mg/mL, 12 months): 16% | Change in IVD width ([2]; patients, after treatment (not shown)): no change in IVD width
